pIC50: −log10 of the molar value.
Legend:
human fibroblasts (HMF) = test: MTT assay, cell viability of normal HMF fibroblasts; type: cell-based; conditions: Fibroblast, 24 h, 24 h exposure
Protocol: (§1) To investigate how the tested compounds affect cell viability, experiments were performed using two human breast cancer cell lines—MDA-MB-231 and MCF-7 and human fibroblasts—HMF (normal cells). The MDA-MB-231 cell line represents a highly invasive, triple-negative breast cancer (TNBC) model, lacking estrogen receptor (ER), progesterone receptor (PR), and HER2 expression. In contrast, MCF-7 cells are estrogen receptor-positive (ER+), less invasive, and hormone-responsive, making them a well-established model for luminal-type breast cancer and hormone therapy research. Anastrozole, an aromatase inhibitor, served as a reference drug. The MTT assay applied in this study relies on mitochondrial dehydrogenase enzymes to reduce a water-soluble […] tetrazolium salt (3-(4,5-dimethylthiazol-2-yl)-2,5-diphenyltetrazolium bromide, or MTT) into a dark blue, insoluble formazan compound. The amount of this formazan product formed is directly related to the mitochondrial activity of viable, metabolically active cells in the sample. The efficacy of the compounds was assessed based on IC50 values and analysis of the concentration-dependence of cell survival.
(§2) The experiments were conducted using MDA-MB-231 and MCF-7 human breast cancer cell lines, as well as human fibroblasts (HMF). All cell lines were sourced from the American Type Culture Collection (ATCC; Manassas, VA, USA). Cells were maintained under standard culture conditions (37 °C, 5% CO2). Breast cancer cells were grown in Dulbecco’s Modified Eagle Medium (DMEM) supplemented with 10% fetal bovine serum (FBS), while fibroblasts were cultured in Eagle’s Minimum Essential Medium (EMEM) with the same serum concentration. To prevent microbial contamination, penicillin (100 U/mL) and streptomycin (100 µg/mL) were added to the media. All cell culture reagents were obtained from Sigma Aldrich (St. Louis, MO, USA).
(§3) Cell viability was evaluated using the MTT assay kit (Sigma Aldrich, St. Louis, MO, USA). On day one of the experiment, MCF-7, MDA-MB-231 cells and human fibroblasts were seeded into 96-well culture plates (Nunc, Roskilde, Denmark) at a density of 1 × 10^5 cells/mL (human fibroblast cell line) and 5 × 10^4 cells/mL (MCF-7, MDA-MB-231 cell lines). After 24 h of incubation, the culture medium was removed and replaced with serial dilutions of test compounds or anastrozole (1, 12.5, 25, 50, 100 µM). Control wells received fresh medium only. Cells were incubated for another 24 h under standard conditions. Following this, 15 µL of MTT solution (5 mg/mL) was added to each well and incubated for 3 h. Afterward, a 10% sodium dodecyl sulfate (SDS) solution was added, and the plates were left overnight. On the following day, absorbance was measured at 570 nm using a microplate reader (Epoch, BioTek Instruments, Inc., Winooski, VT, USA) with Gen5 software (version 2.01, BioTek Instruments).
(§4) Data were analyzed using GraphPad software version 5.01 (GraphPad Software, Inc., La Jolla, CA, USA). Results are expressed as means ± standard deviation (±SD). IC50 values were calculated using the IC50 calculator provided by AAT Bioquest.

[1] = system: MCF-7 (estrogen-dependent) breast cancer cell line; test: MTT assay, cell viability of MCF-7 cells; type: cell-based; conditions: Homo sapiens, MCF7, 24 h, 24 h exposure
Protocol: as §1, §2, §3, §4

[2] = system: MDA-MB-231 (triple-negative) breast cancer cell line; test: MTT assay, cell viability of MDA-MB-231 cells; type: cell-based, human; conditions: 24 h exposure
Protocol: as §1, §2, §3, §4

MCF-7 cell line = system: MCF-7 cell line; parameters: method as in PMID 35335177; conditions: MCF-7, previous study; cited from earlier work

| Structure (SMILES) | pIC50 (human fibroblasts (HMF)) | pIC50 [1] | pIC50 ([2]; Homo sapiens, MDA-MB-231, 24 h) | pIC50 (MCF-7 cell line) | pIC50 [2] |
| --- | --- | --- | --- | --- | --- |
| Fc1cccc(-c2nnc(Nc3ccccc3Cl)s2)c1 [A3, 2-(2-Chlorophenylamino)-5-(3-fluorophenyl)-1,3,4-thiadiazole] | 4.43 | 4.26 | < 4.00 |  |  |
| Fc1cccc(-c2nnc(Nc3ccccc3I)s2)c1 [A1, 5-(3-Fluorophenyl)-2-(2-iodophenylamino)-1,3,4-thiadiazole] | 4.29 | 4.18 | < 4.00 |  |  |
| Fc1ccc(-c2nnc(Nc3ccccc3Br)s2)cc1 [B2, 2-(2-Bromophenylamino)-5-(4-fluorophenyl)-1,3,4-thiadiazole] | 4.38 | 4.08 | < 4.00 |  |  |
| Fc1ccc(-c2nnc(Nc3ccccc3I)s2)cc1 [B1, 5-(4-Fluorophenyl)-2-(2-iodophenylamino)-1,3,4-thiadiazole] | 4.34 | 4.27 | < 4.00 |  |  |
| COc1cccc(-c2nnc(Nc3ccccc3C(F)(F)F)s2)c1 [2-(2-trifluoromethylphenylamino)-5-(3-methoxyphenyl)-1,3,4-thiadiazole] |  |  |  | 4.30 |  |
| Fc1cccc(-c2nnc(Nc3ccccc3Br)s2)c1 [A2, 2-(2-Bromophenylamino)-5-(3-fluorophenyl)-1,3,4-thiadiazole] | 4.44 | 4.28 | < 4.00 |  |  |
| CC(C)(C#N)c1cc(Cn2cncn2)cc(C(C)(C)C#N)c1 [Anastrozole, reference compound] | < 4.00 | < 4.00 | ≤ 4.00 |  | < 4.00 |
| Fc1ccc(-c2nnc(Nc3ccccc3Cl)s2)cc1 [B3, 2-(2-Chlorophenylamino)-5-(4-fluorophenyl)-1,3,4-thiadiazole] | < 4.00 | 4.27 | < 4.00 |  |  |
